In patent US20040116499A1, “Indole derivatives having an inhibitory effect on protein kinases” (priority 2001, published 2004):

Tested on: protein kinase C
Assay: Inhibition of the protein kinase C activity in vitro (protein kinase C assay kit, Calbiochem)
Format: biochemical
Conditions: both isomers as well as the racemate; test not specified at the place
Protocol: For testing the inhibitory effect on protein kinase C a commercially available protein kinase C assay kit (e.g. Calbiochem, Cat. No. 538484) may be employed. For this purpose the phosphorylation of a pseudosubstrate is measured by means of a specific antibody. The substances to be investigated are employed as solution in dimethylsulfoxid. […] By means of this assay the effects on individual PKC isoforms and the inhibition thereof may be tested. The effective concentration may be then determined at a given ATP concentration.
According to this Calbiochem kit it is worked with a batch of 200 μl/well in the following manner: 13 μl of buffer solution, 26 μl of 1 mM ATP (pH 7.0), 13 μl of phosphatidyl serine (500 μg/ml), 13 μl of 20 mM CaCl2, 65 μl of H2O and 55 μl of H2O, respectively, and 10 μl of inhibitor solution in DMSO are mixed, wherein 108 μl are added to an uncoated well. 12 μl of PKC solution (protein content and activity respectively of 0.1 U/12 μl) are added thereto and 100 μl thereof are added to the coated microtiter plate. After incubation for 20 min at room temperature 100 μl stop solution is added. Then washing is done five times with washing solution. […] Thereafter there is again a treatment with 100 μl of stop solution, and then the measurement is done in the Elisa reader at 492 nm. […]

inhibitory effect: distinct inhibitory effect
Structure (SMILES): O=C(O)C1Cc2c([nH]c3ccccc23)C2(N1)C(=O)C(c1c[nH]c3ccccc13)=C(c1c[nH]c3ccccc13)C2=O (stereo not shown) [Pityriarubine A]
